Earlier results as cited in patent US7226791B2, “Polynucleotides encoding novel guanylate binding proteins (GBP's)” (Bristol-Myers Squibb Company, priority 2003, dated 2007).

Biological target: T1, GBP-1 (Homo sapiens, UniProt P32455)
T1 sequence (P32455 1-592): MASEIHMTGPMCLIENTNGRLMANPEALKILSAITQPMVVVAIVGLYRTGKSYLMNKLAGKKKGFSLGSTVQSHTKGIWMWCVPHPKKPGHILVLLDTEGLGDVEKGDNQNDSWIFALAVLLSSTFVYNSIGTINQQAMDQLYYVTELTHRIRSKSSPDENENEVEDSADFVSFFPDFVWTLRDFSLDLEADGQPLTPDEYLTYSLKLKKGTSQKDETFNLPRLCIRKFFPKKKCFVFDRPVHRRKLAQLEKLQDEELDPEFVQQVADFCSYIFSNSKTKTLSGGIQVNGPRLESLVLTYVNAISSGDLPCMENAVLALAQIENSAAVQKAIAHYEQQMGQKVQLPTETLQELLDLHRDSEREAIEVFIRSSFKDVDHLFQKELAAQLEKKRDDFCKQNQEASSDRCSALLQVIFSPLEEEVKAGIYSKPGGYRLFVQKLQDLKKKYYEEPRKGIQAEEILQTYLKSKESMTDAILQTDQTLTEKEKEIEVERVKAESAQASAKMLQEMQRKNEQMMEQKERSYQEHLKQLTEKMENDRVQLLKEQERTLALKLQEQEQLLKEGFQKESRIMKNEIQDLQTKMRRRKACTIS
Details: purified GBP-1 protein, GTP hydrolysis; read-out: Km for substrate; cited from earlier work

Structure (SMILES): Nc1nc2c(ncn2[C@@H]2O[C@H](COP(=O)(O)OP(=O)(O)OP(=O)(O)O)[C@@H](O)[C@H]2O)c(=O)[nH]1 [GTP]
- Km: 470 µM
